Activity calls are given as the source filed them. No rule for the calls is given here.
System: CCRIS mutagenicity, Ames/micronucleus/aberration tests
Assay: CCRIS mutagenicity studies
[1] = Test System: AMES SALMONELLA TYPHIMURIUM, Strain/Indicator: TA98, Metabolic Activation: NONE, Method: STANDARD PLATE
[2] = Test System: AMES SALMONELLA TYPHIMURIUM, Strain/Indicator: TA100, Metabolic Activation: NONE, Method: STANDARD PLATE
[3] = Test System: AMES SALMONELLA TYPHIMURIUM, Strain/Indicator: TA100, Metabolic Activation: RAT, LIVER, S-9, AROCLOR 1254, Method: STANDARD PLATE
[4] = Test System: AMES SALMONELLA TYPHIMURIUM, Strain/Indicator: TA1535, Metabolic Activation: NONE, Method: STANDARD PLATE
[5] = Test System: AMES SALMONELLA TYPHIMURIUM, Strain/Indicator: TA1537, Metabolic Activation: NONE, Method: STANDARD PLATE
[6] = Test System: MOUSE LYMPHOMA, Strain/Indicator: L5178Y (TK+/TK-), Metabolic Activation: NONE, Method: SUSPENSION/PLATE
[7] = Test System: AMES SALMONELLA TYPHIMURIUM, Strain/Indicator: TA98, Metabolic Activation: NONE, Method: PREINCUBATION
[8] = Test System: AMES SALMONELLA TYPHIMURIUM, Strain/Indicator: TA100, Metabolic Activation: NONE, Method: PREINCUBATION

Measured: mutagenic call

COc1cc(C[C@@H]2NCCc3cc(O)c(O)cc32)cc(OC)c1OC
inactive: [1] inactive; negative | Test System: AMES SALMONELLA TYPHIMURIUM, Strain/Indicator: TA98, Metabolic Activation: RAT, LIVER, S-9, AROCLOR 1254, Method: STANDARD PLATE inactive; negative | [2] inactive; negative | [3] inactive; negative | [4] inactive; negative | Test System: AMES SALMONELLA TYPHIMURIUM, Strain/Indicator: TA1535, Metabolic Activation: RAT, LIVER, S-9, AROCLOR 1254, Method: STANDARD PLATE inactive; negative | [5] inactive; negative | Test System: AMES SALMONELLA TYPHIMURIUM, Strain/Indicator: TA1537, Metabolic Activation: RAT, LIVER, S-9, AROCLOR 1254, Method: STANDARD PLATE inactive; negative

C=CC(=O)OCCOC1CC2CC1C1CC=CC21 (stereo unspecified)
active: [6] active; positive

N#CC(C#N)=C(C#N)C#N
inactive: Test System: AMES SALMONELLA TYPHIMURIUM, Strain/Indicator: TA98, Metabolic Activation: HAMSTER, LIVER, S-9, AROCLOR 1254 (10%), Method: STANDARD PLATE inactive; negative | [1] inactive; negative | Test System: AMES SALMONELLA TYPHIMURIUM, Strain/Indicator: TA98, Metabolic Activation: RAT, LIVER, S-9, AROCLOR 1254 (10%), Method: STANDARD PLATE inactive; negative | Test System: AMES SALMONELLA TYPHIMURIUM, Strain/Indicator: TA100, Metabolic Activation: HAMSTER, LIVER, S-9, AROCLOR 1254 (10%), Method: STANDARD PLATE inactive; negative | [2] inactive; negative | Test System: AMES SALMONELLA TYPHIMURIUM, Strain/Indicator: TA100, Metabolic Activation: RAT, LIVER, S-9, AROCLOR 1254 (10%), Method: STANDARD PLATE inactive; negative | Test System: AMES SALMONELLA TYPHIMURIUM, Strain/Indicator: TA1535, Metabolic Activation: HAMSTER, LIVER, S-9, AROCLOR 1254 (10%), Method: STANDARD PLATE inactive; negative | [4] inactive; negative | Test System: AMES SALMONELLA TYPHIMURIUM, Strain/Indicator: TA1535, Metabolic Activation: RAT, LIVER, S-9, AROCLOR 1254 (10%), Method: STANDARD PLATE inactive; negative | Test System: AMES SALMONELLA TYPHIMURIUM, Strain/Indicator: TA1537, Metabolic Activation: HAMSTER, LIVER, S-9, AROCLOR 1254 (10%), Method: STANDARD PLATE inactive; negative | [5] inactive; negative | Test System: AMES SALMONELLA TYPHIMURIUM, Strain/Indicator: TA1537, Metabolic Activation: RAT, LIVER, S-9, AROCLOR 1254 (10%), Method: STANDARD PLATE inactive; negative | Test System: AMES SALMONELLA TYPHIMURIUM, Strain/Indicator: TA1538, Metabolic Activation: HAMSTER, LIVER, S-9, AROCLOR 1254 (10%), Method: STANDARD PLATE inactive; negative | Test System: AMES SALMONELLA TYPHIMURIUM, Strain/Indicator: TA1538, Metabolic Activation: NONE, Method: STANDARD PLATE inactive; negative | Test System: AMES SALMONELLA TYPHIMURIUM, Strain/Indicator: TA1538, Metabolic Activation: RAT, LIVER, S-9, AROCLOR 1254 (10%), Method: STANDARD PLATE inactive; negative | [6] inactive; negative. reevaluation of results: inconclusive | Test System: MOUSE LYMPHOMA, Strain/Indicator: L5178Y (TK+/TK-), Metabolic Activation: RAT, LIVER, S-9, AROCLOR 1254, Method: SUSPENSION/PLATE inactive; negative. reevaluation of results: inconclusive

Cl/C=C(\Cl)C(Cl)Cl
active: [1] active; positive | [2] active; positive | [3] active; positive | [4] active; positive

Oc1cc(Cl)cc(Cl)c1
inactive: Test System: AMES SALMONELLA TYPHIMURIUM, Strain/Indicator: TA98, Metabolic Activation: HAMSTER, LIVER, S-9, AROCLOR 1254, Method: PREINCUBATION inactive; negative | [7] inactive; negative | Test System: AMES SALMONELLA TYPHIMURIUM, Strain/Indicator: TA98, Metabolic Activation: RAT, LIVER, S-9, AROCLOR 1254, Method: PREINCUBATION inactive; negative | Test System: AMES SALMONELLA TYPHIMURIUM, Strain/Indicator: TA100, Metabolic Activation: HAMSTER, LIVER, S-9, AROCLOR 1254, Method: PREINCUBATION inactive; negative | [8] inactive; negative | Test System: AMES SALMONELLA TYPHIMURIUM, Strain/Indicator: TA100, Metabolic Activation: RAT, LIVER, S-9, AROCLOR 1254, Method: PREINCUBATION inactive; negative | Test System: AMES SALMONELLA TYPHIMURIUM, Strain/Indicator: TA1535, Metabolic Activation: HAMSTER, LIVER, S-9, AROCLOR 1254, Method: PREINCUBATION inactive; negative | Test System: AMES SALMONELLA TYPHIMURIUM, Strain/Indicator: TA1535, Metabolic Activation: NONE, Method: PREINCUBATION inactive; negative | Test System: AMES SALMONELLA TYPHIMURIUM, Strain/Indicator: TA1535, Metabolic Activation: RAT, LIVER, S-9, AROCLOR 1254, Method: PREINCUBATION inactive; negative | Test System: AMES SALMONELLA TYPHIMURIUM, Strain/Indicator: TA1537, Metabolic Activation: HAMSTER, LIVER, S-9, AROCLOR 1254, Method: PREINCUBATION inactive; negative | Test System: AMES SALMONELLA TYPHIMURIUM, Strain/Indicator: TA1537, Metabolic Activation: NONE, Method: PREINCUBATION inactive; negative | Test System: AMES SALMONELLA TYPHIMURIUM, Strain/Indicator: TA1537, Metabolic Activation: RAT, LIVER, S-9, AROCLOR 1254, Method: PREINCUBATION inactive; negative

O=C(Nc1snc2ccccc12)c1ccccc1
active: Test System: AMES SALMONELLA TYPHIMURIUM, Strain/Indicator: TA100, Metabolic Activation: S-9, Method: STANDARD PLATE active; positive
inactive: [2] inactive; negative | [5] inactive; negative | Test System: AMES SALMONELLA TYPHIMURIUM, Strain/Indicator: TA1537, Metabolic Activation: S-9, Method: STANDARD PLATE inactive; negative

CC(=O)Oc1ccc2c(CBr)cc(=O)oc2c1
inactive: [7] inactive; negative | Test System: AMES SALMONELLA TYPHIMURIUM, Strain/Indicator: TA98, Metabolic Activation: RAT, LIVER, S-9, PCB, Method: PREINCUBATION inactive; negative | [8] inactive; negative | Test System: AMES SALMONELLA TYPHIMURIUM, Strain/Indicator: TA100, Metabolic Activation: RAT, LIVER, S-9, PCB, Method: PREINCUBATION inactive; negative | Test System: E. COLI, Strain/Indicator: WP2 UVRA, Metabolic Activation: NONE, Method: PREINCUBATION inactive; negative

From PubChem BioAssay AID1259407 (Chemical Carcinogenesis Research Information System (CCRIS), 2018)
